Measured values reported in patent publication US9302999B2, “Substituted triazoles as herbicides” (E. I. DU PONT DE NEMOURS AND COMPANY, priority 2012, dated 2016).
Like-named read-outs stand apart in the source and are kept apart here.

Tests used:
Assay type in all cases: in vivo
[1] = test system: corn (Zea mays); assay: Test A pre-/postemergence: corn
How it was run: (§1)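 Each species received preemergence soil-directed spraying and, at the same time, postemergence treatment of seedlings 2–10 cm tall. Formulation: non-phytotoxic solvent mixture including surfactant. Response assessed visually about ten days on, relative to untreated controls, 0–100 scale.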

[2] = test system: nutsedge, yellow (yellow nutsedge, Cyperus esculentus); assay: Test C pre-/postemergence: nutsedge, yellow
How it was run: (§2)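 Preemergence on seeds in loam/sand, postemergence on 2–18 cm (1–4-leaf) plants in peat-based medium; compounds in non-phytotoxic solvent with surfactant. After 13–15 days in greenhouse, visual rating versus controls, 0 (no effect) to 100 (complete control).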

[3] = test system: pigweed (Amaranthus retroflexus); assay: Test C pre-/postemergence: pigweed
How it was run: as §2

[4] = test system: ryegrass, Italian (Italian ryegrass, Lolium multiflorum); assay: Test C pre-/postemergence: ryegrass, Italian
How it was run: as §2

[5] = test system: barnyardgrass (Echinochloa crus-galli); assay: Test A pre-/postemergence: barnyardgrass; details: for pest or weed control at 125 g/ha / pest or weed control at 500 g/ha: Echinochloa crus-galli, 240 h
How it was run: as §1

[6] = test system: blackgrass (Alopecurus myosuroides); assay: Test C pre-/postemergence: blackgrass
How it was run: as §2

[7] = test system: large crabgrass (Digitaria sanguinalis); assay: Test C pre-/postemergence: large crabgrass
How it was run: as §2

[8] = test system: galium (catchweed bedstraw, Galium aparine); assay: Test C pre-/postemergence: galium
How it was run: as §2

[9] = test system: johnsongrass (Sorghum halepense); assay: Test C pre-/postemergence: johnsongrass
How it was run: as §2

[10] = test system: crabgrass, large (large crabgrass, Digitaria sanguinalis); assay: Test A pre-/postemergence: crabgrass, large; details: for pest or weed control at 125 g/ha / pest or weed control at 500 g/ha: Digitaria sanguinalis, 240 h
How it was run: as §1

[11] = test system: lambsquarters (Chenopodium album); assay: Test C pre-/postemergence: lambsquarters
How it was run: as §2

[12] = test system: wild oat (Avena fatua); assay: Test C pre-/postemergence: wild oat
How it was run: as §2

[13] = Postemergence, 125 g ai/ha, 0 to 100 scale, 0 is no effect, 100 is complete control
[14] = Postemergence, 500 g ai/ha, visual rating on 0 to 100 scale (0 no effect, 100 complete control), approximately ten days
[15] = Preemergence, 125 g ai/ha, 0 to 100 scale where 0 is no effect and 100 is complete control
[16] = Preemergence, 500 g ai/ha, 0 to 100 scale (0 no effect, 100 complete control)
[17] = Postemergence, 31 g ai/ha, scale 0 to 100 (0 no effect, 100 complete control)
[18] = Postemergence, 62 g ai/ha, scale 0 to 100 (0 no effect, 100 complete control)
[19] = Postemergence, 125 g ai/ha, scale 0 to 100, 0 no effect, 100 complete control
[20] = Postemergence, 250 g ai/ha, scale 0 to 100
[21] = Preemergence, 31 g ai/ha, scale of 0 to 100, 0 is no effect, 100 is complete control
[22] = Preemergence, 62 g ai/ha, scale of 0 to 100, 0 is no effect, 100 is complete control
[23] = Preemergence, 125 g ai/ha, scale 0 to 100, 0 no effect, 100 complete control
[24] = Preemergence, 250 g ai/ha, scale 0 to 100, 0 no effect, 100 complete control

SMILES: CCCc1nn(-c2ccc(F)cc2)nc1Cc1ccnc(C(F)(F)F)c1 [Compound 153]
- Plant response rating, Corn [1, 13]: 60
- Corn plant response rating [1, 14]: 80
- Plant response rating, Corn [1, 15]: 70
- Plant response rating, Corn [1, 16]: 80
- Plant response rating, Nutsedge, Yellow [2, 17]: 10
- Plant response rating, Nutsedge, Yellow [2, 18]: 10
- Plant response rating, Nutsedge, Yellow [2, 19]: 15
- Plant response rating, Nutsedge, Yellow [2, 20]: 15
- Plant response rating, Nutsedge, Yellow [2, 21]: 0
- Plant response rating, Nutsedge, Yellow [2, 22]: 0
- Plant response rating, Nutsedge, Yellow [2, 23]: 5
- Plant response rating, Pigweed [3, 17]: 95
- Plant response rating, Pigweed [3, 18]: 95
- Plant response rating, Pigweed [3, 19]: 98
- Plant response rating, Pigweed [3, 20]: 98
- Plant response rating, Pigweed [3, 21]: 100
- Plant response rating, Pigweed [3, 22]: 100
- Plant response rating, Pigweed [3, 23]: 100
- Plant response rating, Pigweed [3, 24]: 100
- Plant response rating, Ryegrass, Italian [4, 17]: 30
- Plant response rating, Ryegrass, Italian [4, 18]: 35
- Plant response rating, Ryegrass, Italian [4, 19]: 60
- Plant response rating, Ryegrass, Italian [4, 20]: 65
- Plant response rating, Ryegrass, Italian [4, 21]: 60
- Plant response rating, Ryegrass, Italian [4, 22]: 90
- Plant response rating, Ryegrass, Italian [4, 23]: 90
- Plant response rating, Ryegrass, Italian [4, 24]: 90
- Plant response rating, Barnyardgrass [5, 13]: 90
- Barnyardgrass plant response rating [5, 14]: 90
- Plant response rating, Barnyardgrass [5, 15]: 100
- Plant response rating, Barnyardgrass [5, 16]: 100
- Plant response rating, Blackgrass [6, 17]: 55
- Plant response rating, Blackgrass [6, 18]: 60
- Plant response rating, Blackgrass [6, 19]: 70
- Plant response rating, Blackgrass [6, 20]: 90
- Plant response rating, Blackgrass [6, 21]: 90
- Plant response rating, Blackgrass [6, 22]: 90
- Plant response rating, Blackgrass [6, 23]: 90
- Plant response rating, Blackgrass [6, 24]: 90
- Plant response rating, Crabgrass, Large [7, 17]: 50
- Plant response rating, Crabgrass, Large [7, 18]: 55
- Plant response rating, Crabgrass, Large [7, 19]: 80
- Plant response rating, Crabgrass, Large [7, 20]: 90
- Plant response rating, Crabgrass, Large [7, 21]: 100
- Plant response rating, Crabgrass, Large [7, 22]: 100
- Plant response rating, Crabgrass, Large [7, 23]: 100
- Plant response rating, Crabgrass, Large [7, 24]: 100
- Plant response rating, Galium [8, 17]: 60
- Plant response rating, Galium [8, 18]: 65
- Plant response rating, Galium [8, 19]: 85
- Plant response rating, Galium [8, 20]: 85
- Plant response rating, Galium [8, 21]: 80
- Plant response rating, Galium [8, 22]: 98
- Plant response rating, Galium [8, 23]: 100
- Plant response rating, Galium [8, 24]: 100
- Plant response rating, Johnsongrass [9, 17]: 40
- Plant response rating, Johnsongrass [9, 19]: 60
- Plant response rating, Johnsongrass [9, 20]: 90
- Plant response rating, Johnsongrass [9, 21]: 90
- Plant response rating, Johnsongrass [9, 22]: 90
- Plant response rating, Johnsongrass [9, 23]: 95
- Plant response rating, Johnsongrass [9, 24]: 98
- Plant response rating, Crabgrass, Large [10, 13]: 100
- Crabgrass, Large plant response rating [10, 14]: 100
- Plant response rating, Crabgrass, Large [10, 15]: 100
- Plant response rating, Crabgrass, Large [10, 16]: 100
- Plant response rating, Lambsquarters [11, 17]: 95
- Plant response rating, Lambsquarters [11, 18]: 95
- Plant response rating, Lambsquarters [11, 19]: 95
- Plant response rating, Lambsquarters [11, 20]: 95
- Plant response rating, Lambsquarters [11, 21]: 95
- Plant response rating, Lambsquarters [11, 22]: 100
- Plant response rating, Lambsquarters [11, 23]: 100
- Plant response rating, Lambsquarters [11, 24]: 100
- Plant response rating, Oat, Wild [12, 17]: 35
- Plant response rating, Oat, Wild [12, 18]: 50
- Plant response rating, Oat, Wild [12, 19]: 70
- Plant response rating, Oat, Wild [12, 20]: 85

SMILES: Cc1nn(-c2ccc(F)cc2)nc1Cc1ccnc(C(F)(F)F)c1 [Compound 16, 4-[[2-(4-fluorophenyl)-5-methyl-2H-1,2,3-triazol-4-yl]methyl]-2-(trifluoromethyl)pyridine]
- plant injury at 125 g/ha ([1]; Zea mays, post-emergence, 240 h, Postemergence, 125 g ai/ha, 0 to 100 scale, 0 is no effect, 100 is complete control, read-out: Corn plant response rating): 30%
- plant injury at 500 g/ha ([1]; Zea mays, post-emergence, 240 h, Postemergence, 500 g ai/ha, visual rating on 0 to 100 scale (0 no effect, 100 complete control), approximately ten days, read-out: Corn plant response rating): 50%
- Corn plant response rating (crop injury, 0 = no effect, 100 = complete kill) at 125 g/ha ([1]; Zea mays, pre-emergence, 240 h, Preemergence, 125 g ai/ha, 0 to 100 scale (0 no effect, 100 complete control)): 10%
- Corn plant response rating (crop injury, 0 = no effect, 100 = complete kill) at 500 g/ha ([1]; Zea mays, pre-emergence, 240 h, Preemergence, 500 g ai/ha, 0 to 100 scale, 0 is no effect, 100 is complete control): 20%
- Plant response rating, Nutsedge, Yellow [2, 17]: 0
- Plant response rating, Nutsedge, Yellow [2, 18]: 0
- Plant response rating, Nutsedge, Yellow [2, 19]: 0
- Plant response rating, Nutsedge, Yellow [2, 20]: 0
- Plant response rating, Pigweed [3, 17]: 75
- Plant response rating, Pigweed [3, 18]: 95
- Plant response rating, Pigweed [3, 19]: 100
- Plant response rating, Pigweed [3, 20]: 100
- Plant response rating, Ryegrass, Italian [4, 17]: 10
- Plant response rating, Ryegrass, Italian [4, 18]: 10
- Plant response rating, Ryegrass, Italian [4, 19]: 20
- Plant response rating, Ryegrass, Italian [4, 20]: 20
- Plant response rating, Ryegrass, Italian [4, 21]: 5
- Plant response rating, Ryegrass, Italian [4, 22]: 95
- Plant response rating, Ryegrass, Italian [4, 23]: 100
- Plant response rating, Ryegrass, Italian [4, 24]: 100
- pest or weed control at 125 g/ha ([5]; post-emergence, Postemergence, 125 g ai/ha, 0 to 100 scale, 0 is no effect, 100 is complete control, read-out: Barnyardgrass plant response rating): 90%
- pest or weed control at 500 g/ha ([5]; post-emergence, Postemergence, 500 g ai/ha, visual rating on 0 to 100 scale (0 no effect, 100 complete control), approximately ten days, read-out: Barnyardgrass plant response rating): 100%
- pest or weed control at 125 g/ha ([5]; pre-emergence, Preemergence, 125 g ai/ha, 0 to 100 scale (0 no effect, 100 complete control), read-out: Plant response rating, Barnyardgrass): 90%
- pest or weed control at 500 g/ha ([5]; pre-emergence, Preemergence, 500 g ai/ha, 0 to 100 scale, 0 is no effect, 100 is complete control, read-out: Plant response rating, Barnyardgrass): 100%
- Plant response rating, Blackgrass [6, 17]: 10
- Plant response rating, Blackgrass [6, 18]: 25
- Plant response rating, Blackgrass [6, 19]: 40
- Plant response rating, Blackgrass [6, 20]: 80
- Plant response rating, Blackgrass [6, 21]: 90
- Plant response rating, Blackgrass ([6]; Preemergence, 62 g ai/ha, scale 0 to 100, 0 no effect, 100 complete control): 100
- Plant response rating, Blackgrass [6, 23]: 100
- Plant response rating, Blackgrass [6, 24]: 100
- Plant response rating, Crabgrass, Large [7, 17]: 5
- Plant response rating, Crabgrass, Large [7, 18]: 5
- Plant response rating, Crabgrass, Large [7, 19]: 20
- Plant response rating, Crabgrass, Large [7, 20]: 60
- Plant response rating, Galium [8, 17]: 60
- Plant response rating, Galium [8, 18]: 65
- Plant response rating, Galium [8, 19]: 80
- Plant response rating, Galium [8, 20]: 90
- Plant response rating, Galium [8, 21]: 100
- Plant response rating, Galium [8, 22]: 100
- Plant response rating, Galium [8, 23]: 100
- Plant response rating, Galium [8, 24]: 100
- Plant response rating, Johnsongrass [9, 17]: 0
- Plant response rating, Johnsongrass [9, 18]: 0
- Plant response rating, Johnsongrass [9, 19]: 45
- Plant response rating, Johnsongrass [9, 20]: 45
- pest or weed control at 125 g/ha ([10]; post-emergence, Postemergence, 125 g ai/ha, 0 to 100 scale, 0 is no effect, 100 is complete control, read-out: Crabgrass, Large plant response rating): 90%
- pest or weed control at 500 g/ha ([10]; post-emergence, Postemergence, 500 g ai/ha, visual rating on 0 to 100 scale (0 no effect, 100 complete control), approximately ten days, read-out: Crabgrass, Large plant response rating): 90%
- pest or weed control at 125 g/ha ([10]; pre-emergence, Preemergence, 125 g ai/ha, 0 to 100 scale (0 no effect, 100 complete control), read-out: Plant response rating, Crabgrass, Large): 90%
- pest or weed control at 500 g/ha ([10]; pre-emergence, Preemergence, 500 g ai/ha, 0 to 100 scale, 0 is no effect, 100 is complete control, read-out: Plant response rating, Crabgrass, Large): 100%
- Plant response rating, Lambsquarters [11, 17]: 95
- Plant response rating, Lambsquarters [11, 18]: 100
- Plant response rating, Lambsquarters [11, 19]: 100
- Plant response rating, Lambsquarters [11, 20]: 100
- Plant response rating, Oat, Wild [12, 17]: 5
- Plant response rating, Oat, Wild [12, 18]: 10
- Plant response rating, Oat, Wild [12, 19]: 20
- Plant response rating, Oat, Wild [12, 20]: 80
- Plant response rating, Oat, Wild [12, 21]: 98
- Plant response rating, Oat, Wild [12, 22]: 100
- Plant response rating, Oat, Wild [12, 23]: 100
- Plant response rating, Oat, Wild [12, 24]: 100
